Data reported in patent publication US11224667B2, “11C-labeled catechol derivative, pet probe of phosphorylated tau aggregation inhibitor using the same, and production method of the same” (NATIONAL CENTER FOR GERIATRICS AND GERONTOLOGY, priority 2017, dated 2022).

Legend:
[1] = system: tau protein; conditions: cited from earlier work
[2] = system: hyperphosphorylated tau-expressing mice; conditions: administered to hyperphosphorylated tau-expressing mice; cited from earlier work
[3] = Stability of isolated [11C]isoproterenol solution, radiochemical purity by HPLC; format: physicochemical
Description: Radiochemical purity and chemical purity of [2-^11C] isoproterenol in the solution after HPLC fractionation were analyzed by HPLC (CH3CN/acetic acid-ammonium acetate (pH 5.3), 10:90; column, CAPCELL PAK SCX UG 80, 4.6 (id)×150 mm; flow rate, 1 mL/min; UV detection, 278 nm; retention time, 6.5 min). [^11C] isoproterenol was confirmed by co-injection of unlabeled isoproterenol in HPLC. In the absence of addition of tartaric acid, the radiochemical purity immediately after isolation was 96%, whereas the radiochemical purity after 60 minutes dropped to 84% (see FIG. 3). […] This is presumed to be due to inhibition of deprotonation of two adjacent phenolic hydroxyl groups present in the catechol nucleus under acidic conditions and suppression of subsequent oxidative decomposition by oxygen molecules or superoxide. Also, the chemical purity measured at the above wavelength was >93%

**Q.** For CC(C)NCC(O)c1ccc(O)c(O)c1 [D/L-isoproterenol], which “inhibition of aggregation of tau protein” value [1] is on record?
**A.** The value was “particularly strongly suppresses aggregation of tau protein”.

**Q.** What about the abnormal behavior [2] of the same compound?
**A.** The abnormal behavior was “improvement of abnormal behavior”.

**Q.** What about the “aggregation of tau protein” value [2] of the same compound?
**A.** Its value is “suppression of aggregation of tau protein”.

**Q.** And the nerve cell dropout [2]?
**A.** The nerve cell dropout was “suppression of nerve cell dropout”.

**Q.** For CC(C)NCC(O)c1ccc(O)c(O)c1 (stereo not drawn) [[^11C] isoproterenol, [2-^11C] isoproterenol], which “radiochemical purity after 60 minutes” value ([3]; solution after HPLC fractionation, absence of addition of tartaric acid, 60 minutes after isolation) is on record?
**A.** The value was 84%.

**Q.** What about the “radiochemical purity immediately after isolation” value ([3]; solution after HPLC fractionation, absence of addition of tartaric acid, immediately after isolation) of the same compound?
**A.** Its value is 96%.

**Q.** And the “drop in radiochemical purity after 60 minutes” value ([3]; tartaric acid added, 60 minutes after isolation)?
**A.** The value was “no drop in radiochemical purity was observed”.

**Q.** With CNCC(O)c1ccc(O)c(O)c1 (stereo not drawn) [adrenaline] as the compound, how does the “inhibition of aggregation of tau protein” value [1] read?
**A.** The value was “inhibited aggregation of tau protein”.

**Q.** For NCCc1ccc(O)c(O)c1 [dopamine], which “inhibition of aggregation of tau protein” value [1] is on record?
**A.** The value was “inhibited aggregation of tau protein”.
